Laboratory results taken from patent US5430062A, “Stilbene derivatives as anticancer agents” (priority 1993, dated 1995).
Where a name gives a salt, the structure may show the parent alone. Read-outs that look alike come from different tables or passages of the source.

Key:
tubulin [1] = assay: Inhibition of tubulin polymerization (turbidimetry); type: biochemical, bovine
M14 melanoma = assay: Cytotoxicity, M14
SF-295 CNS cancer = assay: Cytotoxicity, SF-295; details: read-out: cytotoxicity GI50, SF-295, 50% growth inhibition, average of two determinations, 8640 min
CAKI-1 renal cancer = assay: Cytotoxicity, CAKI-1
[2] = test system: DMS 273 small cell lung cancer; assay: Cytotoxicity, DMS 273; details: read-out: cytotoxicity GI50, DMS 273, 50% growth inhibition, average of two determinations, 8640 min
OVCAR-3 ovarian cancer = assay: Cytotoxicity, OVCAR-3
COLO 205 colon cancer = assay: Cytotoxicity, COLO 205; details: read-out: cytotoxicity GI50, COLO 205, 50% growth inhibition, average of two determinations, 8640 min
HL-60 (TB) leukemia = assay: Cytotoxicity, HL-60(TB) leukemia; details: read-out: cytotoxicity GI50, HL-60(TB), 50% growth inhibition, average of two determinations, 8640 min
tubulin [3] = assay: Inhibition of [3H]colchicine binding to tubulin (DEAE-filter); parameters: species or system bovine
tubulin [4] = details: cited from earlier work
MLM melanoma = assay: MTT cytotoxicity assay, MLM; details: […], read-out: Cytotoxicity ED50, MLM
A-549 lung carcinoma = assay: MTT cytotoxicity assay, A-549; details: Homo sapiens, A549, […], read-out: Cytotoxicity ED50, A-549
MCF-7 breast carcinoma = assay: MTT cytotoxicity assay, MCF-7; details: Homo sapiens, MCF7, […], read-out: Cytotoxicity ED50, MCF-7
[5] = test system: HT-29 colon adenocarcinoma; assay: MTT cytotoxicity assay, HT-29; details: Homo sapiens, HT-29, […], read-out: Cytotoxicity ED50, HT-29
[6] = Stability in DMSO solution at room temperature (NMR); type: physicochemical; details: protected from light, read-out: formation of the cis isomer (1a)
Method: The cytotoxic compounds gave reproducible results in the tubulin polymerization assay with the exception of the trans stilbenes 1b and 6n. […] The cytotoxic properties of these two agents may similarly result from chemical changes in solution. […] The ratio of 6n:5n was 1:1 after 24 hours of the dissolution of pure 6n in DMSO at room temperature.

[7] = Table X, different glutamate preparation (1M monosodium glutamate and GTP), Hydrochloride, read-out: inhibn of tubulin polymn IC50 (±SD)
[8] = benzylanilines, Table X series, read-out: tubulin polymerization IC50
[9] = read-out: cytotoxicity GI50, CAKI-1, 50% growth inhibition, average of two determinations, 8640 min, Hydrochloride
[10] = read-out: cytotoxicity GI50, OVCAR-3, 50% growth inhibition, average of two determinations, 8640 min, Hydrochloride
[11] = read-out: cytotoxicity GI50, M14, 50% growth inhibition, average of two determinations, 8640 min, Hydrochloride

| Structure (SMILES) | IC50 (tubulin [1]; [7]) [µM] | IC50 (tubulin [1]; [8]) [µM] | GI50 (SF-295 CNS cancer; Hydrochloride) [µM] | GI50 (CAKI-1 renal cancer; [9]) [µM] | GI50 ([2]; Hydrochloride) [µM] | GI50 (OVCAR-3 ovarian cancer; [10]) [µM] | GI50 (COLO 205 colon cancer; Hydrochloride) [µM] | GI50 (HL-60 (TB) leukemia; Hydrochloride) [µM] | GI50 (M14 melanoma; [11]) [µM] | also measured |
| --- | --- | --- | --- | --- | --- | --- | --- | --- | --- | --- |
| COc1cc(CNc2ccc(SC)cc2)cc(OC)c1OC [109e, 4-Methylthio-N-(3,4,5-trimethoxybenzyl)aniline] |  |  |  |  |  |  |  |  |  | IC50 (tubulin [1]; Table X, different glutamate preparation (1M monosodium glutamate and GTP), read-out: inhibn of tubulin polymn IC50 (±SD)): > 40 µM; GI50 (M14 melanoma; read-out: cytotoxicity GI50, M14, 50% growth inhibition, average of two determinations, 8640 min): 5.26 µM; GI50 (SF-295 CNS cancer): 7.28 µM; GI50 (CAKI-1 renal cancer; read-out: cytotoxicity GI50, CAKI-1, 50% growth inhibition, average of two determinations, 8640 min): 32 µM; GI50 [2]: 3.09 µM; GI50 (OVCAR-3 ovarian cancer; read-out: cytotoxicity GI50, OVCAR-3, 50% growth inhibition, average of two determinations, 8640 min): 5.93 µM; GI50 (COLO 205 colon cancer): 3.88 µM; GI50 (HL-60 (TB) leukemia): 3.7 µM |
| COc1ccc(NCc2cc(OC)c(OC)c(OC)c2)cc1 [110c, 4-Methoxy-N-(3,4,5-trimethoxybenzyl)aniline Hydrochloride] | 8.9 | 8.9 | 2.32 | 2.5 | 0.534 | 1.96 | 1.66 | 0.834 |  | GI50 (M14 melanoma; read-out: cytotoxicity GI50, M14; 50% growth inhibition; average of two determinations; 8640 min): 2.38 µM |
| CCOc1ccc(NCc2cc(OC)c(OC)c(OC)c2)cc1 [110d, 4-Ethoxy-N-(3,4,5-trimethoxybenzyl)aniline Hydrochloride] | 11 | 11 | 0.418 | 1.05 | 0.961 | 0.464 | 0.538 | 0.448 | 0.532 |  |
| COc1cc(CNc2ccc(SC)cc2)cc(OC)c1OC [110e, 4-Methylthio-N-(3,4,5-trimethoxybenzyl)aniline Hydrochloride] | 16 | 16 | 3.41 | 16.3 | 4.91 | 4.85 | 3.6 | 3.29 | 4.84 |  |
| COc1ccc(/C=C\c2cc(OC)c(OC)c(OC)c2)cc1O [compound 1a, reference compound] |  |  |  |  |  |  |  |  |  | inhibition of colchicine binding (in words) (tubulin [3]): nearly total inhibition of colchicine binding; competitive inhibition of colchicine binding (tubulin [4]): competitively inhibit the binding of radiolabeled colchicine to tubulin; IC50 (MLM melanoma): 0.014 nM; IC50 (A-549 lung carcinoma): 1.2 pM; IC50 (MCF-7 breast carcinoma): 3.8 pM; IC50 [5]: 0.012 nM |
| COc1ccc(/C=C/c2cc(OC)c(OC)c(OC)c2)cc1O [compound 1b, reference compound] |  |  |  |  |  |  |  |  |  | degraded at […] ([6]; four weeks): ~10%; degraded at 336 h ([6]; two weeks): ~3% |
